Starred links: 1 amine or outer side, 2 acyl side, 3 side chain; linkers in the order of their positions; H or OH if unused. Non-standard residues stand in square brackets, D forms with d. Residues, ends and D or L forms follow the SMILES beside them. Groups on a side chain read outwards from the residue. *: point of attachment. C20 diacid = O=C(O)CCCCCCCCCCCCCCCCCCC(=O)*; γGlu = O=C(O)[C@H](CCC(=O)[*:2])N[*:1]; AEEA = NCCOCCOCC(=O)O; Aib = CC(C)(N)C(=O)O

A word on the EC50: it is the midpoint of the concentration-response curve. A word on the bioavailability: it is dose-corrected exposure relative to a reference, in per cent. A lower bioavailability goes with poor availability. By half-life is commonly meant how long it takes for the measured level to halve. Read a high half-life as slow decline. As usually defined, the Tmax is the time at which the peak concentration occurs.

The target of one data set is T1, human GIP R (Homo sapiens, UniProt P48546).
T1 sequence (P48546 22-466): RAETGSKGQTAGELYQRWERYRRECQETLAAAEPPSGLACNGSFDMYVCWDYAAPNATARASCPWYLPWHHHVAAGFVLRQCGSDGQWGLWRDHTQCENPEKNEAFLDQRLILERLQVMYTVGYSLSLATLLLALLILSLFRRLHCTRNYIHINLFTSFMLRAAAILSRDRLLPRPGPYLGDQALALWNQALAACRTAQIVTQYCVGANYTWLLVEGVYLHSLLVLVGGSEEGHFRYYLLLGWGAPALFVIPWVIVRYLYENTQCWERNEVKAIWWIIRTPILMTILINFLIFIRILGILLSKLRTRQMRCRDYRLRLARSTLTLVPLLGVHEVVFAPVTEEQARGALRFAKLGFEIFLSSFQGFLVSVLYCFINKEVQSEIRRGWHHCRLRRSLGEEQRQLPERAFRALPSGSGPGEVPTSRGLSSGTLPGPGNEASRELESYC
Kind of data set: cell-based.

Data set [1] deals with human GLP-1 receptor (GLP-1R) (Homo sapiens, UniProt P43220). Kind of data set: Activity assay at human GLP-1 receptor, cAMP induction (AlphaScreen), Example 3.
Data set [2] concerns the target T2, human GIP receptor (GIP R) (Homo sapiens, UniProt P48546).
T2 sequence (P48546 22-466): T1 sequence (P48546 22-466)
The data set can be described thus: Activity assay at human GIP receptor, cAMP induction (AlphaScreen), Example 3.

The nature of another data set: in vivo. The settings on record: male, C57BL/6J, mouse; for bioavailability: Bioavailability s.c.; for half-life: 200 nmol/kg.
Setting [3] is: iv, Terminal elimination half-life T½ i.v.
The mark [4] stands for this setting: sc, Terminal elimination half-life T½ s.c.

Chain of human GLP-1 receptor (GLP-1R) (P43220 24-463): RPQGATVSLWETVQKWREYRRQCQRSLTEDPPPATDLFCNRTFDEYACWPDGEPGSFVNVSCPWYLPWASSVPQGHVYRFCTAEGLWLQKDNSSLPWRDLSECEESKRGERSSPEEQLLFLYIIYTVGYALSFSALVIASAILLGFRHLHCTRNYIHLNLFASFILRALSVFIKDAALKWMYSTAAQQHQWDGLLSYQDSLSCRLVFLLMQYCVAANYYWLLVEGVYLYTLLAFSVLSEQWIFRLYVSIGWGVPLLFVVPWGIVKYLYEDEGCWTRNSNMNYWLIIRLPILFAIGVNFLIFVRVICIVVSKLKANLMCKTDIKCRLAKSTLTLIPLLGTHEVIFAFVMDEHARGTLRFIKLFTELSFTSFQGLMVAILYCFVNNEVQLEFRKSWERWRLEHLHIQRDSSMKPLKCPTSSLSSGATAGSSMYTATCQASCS

For `CC[C@H](C)[C@H](NC(=O)[C@H](CO)NC(=O)[C@H](Cc1ccc(O)cc1)NC(=O)[C@H](CC(=O)O)NC(=O)[C@H](CO)NC(=O)[C@@H](NC(=O)[C@H](Cc1ccccc1)NC(=O)[C@@H](NC(=O)CNC(=O)[C@H](CCC(=O)O)NC(=O)C(C)(C)NC(=O)[C@@H](N)Cc1ccc(O)cc1)[C@@H](C)O)[C@@H](C)CC)C(=O)N[C@@H](CCC(=O)O)C(=O)N[C@@H](CC(C)C)C(=O)N[C@@H](CCC(=O)O)C(=O)N[C@@H](CCCCN)C(=O)N[C@@H](CCCCNC(=O)COCCOCCNC(=O)COCCOCCNC(=O)CC[C@H](NC(=O)CCCCCCCCCCCCCCCCCCC(=O)O)C(=O)O)C(=O)N[C@@H](C)C(=O)N[C@@H](CCC(N)=O)C(=O)N[C@@H](CCCNC(=N)N)C(=O)N[C@@H](C)C(=O)N[C@@H](Cc1ccccc1)C(=O)N[C@H](C(=O)N[C@@H](CCC(=O)O)C(=O)N[C@@H](Cc1c[nH]c2ccccc12)C(=O)N[C@@H](CC(C)C)C(=O)N[C@@H](CC(C)C)C(=O)N[C@@H](C)C(=O)N[C@@H](CCC(N)=O)C(=O)NCC(=O)N1CCC[C@H]1C(=O)N[C@@H](CO)C(=O)N[C@@H](CO)C(=O)NCC(=O)N[C@@H](C)C(=O)N1CCC[C@H]1C(=O)N1CCC[C@H]1C(=O)N1CCC[C@H]1C(=O)N[C@@H](CO)C(N)=O)C(C)C` [Compound 12], the figures for the EC50 (at human GIP R; in data set [1]; in data set [2]) were 9 pM, above 3000 pM and 9 pM, respectively. The bioavailability in “in vivo” is 77%; in “in vivo” (sc, repeated test), 98%. Moreover, the values for the half-life in “in vivo” (setting [3]) and in the data set “in vivo” (setting [4]) were 14.7 h and 16.8 h, respectively. For the same molecule, in “in vivo” (sc), the Tmax is 8 h.

Turning to `CC[C@H](C)[C@H](NC(=O)[C@H](CCCCN)NC(=O)[C@H](CCC(=O)O)NC(=O)[C@H](CC(C)C)NC(=O)[C@H](CCC(=O)O)NC(=O)[C@@H](NC(=O)[C@H](CO)NC(=O)[C@H](Cc1ccc(O)cc1)NC(=O)[C@H](CC(=O)O)NC(=O)[C@H](CO)NC(=O)[C@@H](NC(=O)[C@H](Cc1ccccc1)NC(=O)[C@@H](NC(=O)CNC(=O)[C@H](CCC(=O)O)NC(=O)C(C)(C)NC(=O)[C@@H](N)Cc1ccc(O)cc1)[C@@H](C)O)[C@@H](C)CC)[C@@H](C)CC)C(=O)N[C@@H](C)C(=O)N[C@@H](CCC(N)=O)C(=O)N[C@@H](CCCNC(=N)N)C(=O)N[C@@H](C)C(=O)N[C@@H](Cc1ccccc1)C(=O)N[C@H](C(=O)N[C@@H](CCC(=O)O)C(=O)N[C@@H](Cc1c[nH]c2ccccc12)C(=O)N[C@@H](CC(C)C)C(=O)N[C@@H](CC(C)C)C(=O)N[C@@H](C)C(=O)N[C@@H](CCC(N)=O)C(=O)NCC(=O)N1CCC[C@H]1C(=O)N[C@@H](CO)C(=O)N[C@@H](CO)C(=O)NCC(=O)N[C@@H](C)C(=O)N1CCC[C@H]1C(=O)N1CCC[C@H]1C(=O)N1CCC[C@H]1C(=O)N[C@@H](CO)C(=O)N[C@@H](CCCCNC(=O)COCCOCCNC(=O)COCCOCCNC(=O)CC[C@H](NC(=O)CCCCCCCCCCCCCCCCCCC(=O)O)C(=O)O)C(N)=O)C(C)C` [Compound 13] (H-Y[Aib]EGTFISDYSIELEKIAQRAFVEWLLAQGPSSGAPPPSK([AEEA-AEEA-γGlu-C20 diacid])-NH2), the figures for the EC50 (on human GIP R; in data set [1]; in data set [2]) were 14 pM, above 10000 pM and 8 pM, respectively. Further, in “in vivo”, the bioavailability came out at 75%. Moreover, the half-life in the data set “in vivo” (setting [3]) was 14.4 h; in “in vivo” (setting [4]) it was 13.7 h. Besides, in “in vivo” (sc), the time to peak (Tmax) was found to be 8 h.

For the origin of these results see patent publication US12703729B2, “GIP agonist compounds and methods” (Zealand Pharma A/S, priority 2014, dated 2026).
